This assay relates to WT mice subjected to photothrombotic stroke in the motor cortex. Briefly: Cylinder test (spontaneous forelimb asymmetry) after photothrombotic stroke. Format: in vivo, mouse. The method, then: Cortical photothrombosis was induced using the Rose Bengal method (Lee et al., 2007; Watson et al., 1985) with some modifications. Anesthesia was induced with isoflurane (Forene®, Abbott) in air and oxygen (1:1) initially at 5% and reduced to 2.5% during the surgical procedure. Body temperature was monitored by a rectal probe and maintained at 37° C. using a homeothermic control unit (Harvard Apparatus). Anesthetized mice were placed in a stereotaxic frame, the skull was exposed through a midline scalp incision and Rose Bengal (200 μl, 10 mg/ml solution in sterile saline, Sigma) was injected intraperitoneally. After 5 min, the skull and underlying brain tissue were illuminated for 12 min by a 2 mm diameter cold laser beam (50 mW, 561 nm; Cobolt AB) positioned at AP +0.5 mm and ML −2.7 mm relative to Bregma, targeting the border between left primary somatosensory and motor cortex (Porritt et al., 2012). For intervention experiments targeting motor cortex, stroke was induced as above with the following modifications: Transcranial illumination lasting 15 min was delivered using cold light source (LQ1600, Fiberoptic-Heim AG) equipped with 2 mm wide fiber optic probe and directed to AP +0 and ML −1.5 relative to Bregma. After illumination, the scalp was sutured and mice were placed in a warm cage for 45 min to recover from anesthesia prior to being returned to the home cage. Mice were provided with moist mashed food placed on the floor of the home cage and their weight was monitored daily for 7 days after surgery. There were no significant differences in body weight, body temperature (36.5±0.5° C.), duration of surgery, or post-stroke mortality between cohorts. Each cohort contained an even distribution of mice from the matched strains or treatment groups.
Purified human C3a peptide (Complement Technologies) was diluted in sterile phosphate buffered saline (PBS) to a concentration of 200 nM and a total of 20 μl (10 μl/nostril; corresponding to approximately 1.13 μg/kg body weight) of peptide solution or PBS was given intranasally to awake, hand-restrained mice held in a supine position. Solutions were administered through a pipette tip, drop-wise in 5 μl portions divided by 1 min intervals to allow for absorption. C3a or PBS was given every 24 hours on days 7 to 21 post-stroke for the short-term study or on days 7 to 28 post-stroke for the long-term study. Mice were assigned to C3a or PBS treatment using randomization stratified by body weight to avoid potential confounding effects of body weight on behavioural performance. The investigators carrying out behavioural studies and analysing data were blinded to treatment group. For the assessment of potential systemic anaphylactic response due to intranasal C3a inoculation, body temperature was monitored using a rectal temperature probe (Harvard Apparatus) inserted approximately 4 mm into the rectum of awake mice restrained by the scruff. Baseline temperature was taken before intranasal administration and 5, 15, 30, 45 and 75 min after C3a or PBS administration.
Functional impairment of mice treated intranasally with C3a or vehicle was assessed using a modified cylinder test and a grid walking task to closely evaluate forepaw function. Mice were tested once on each task one week before stroke induction to establish baseline performance. Next, they were tested on days 7, 14 and 21 (short-term study) or days 7, 14, 28, 42 and 56 (long-term study) post-stroke. […]

Take “C3a: Purified human C3a peptide (Complement Technologies), C3a receptor agonist, amino acid sequence SEQ ID NO: 1”: where the note is “long-term study, day 56, Sidak's test P=0.0687”, the “cylinder task average scores on last day of testing, C3a vs PBS” value is on record as “only a trend toward a difference between groups”. For the same substance, the “cylinder task performance at days 28 and 56 vs day 7” value (long-term study, Dunnett's test P=0.032 and P=0.0019) is on record as “sustained functional improvement”. Also, the “mice that improved affected paw usage between day 7 and day 56” value (long-term study, paired t-test P=0.009) is 8/10. In addition, the “right paw use for body support, course between days 7 and 21” value (short-term study, C3a days 7-21, n=10 mice/group) was “continuous improvement”. The “frequency of right paw use on day 21 vs baseline” value (short-term study, P=0.062) is “did not differ from baseline performance”.

(Values after patent publication US11266715B2, “C3A receptor agonists for use against ischemic brain injury, stroke, traumatic brain injury, spinal cord injury and neurodegenerative disorders” (priority 2016, dated 2022).)
